Source: patent publication US20150105252A1, “SUBSTITUTED PYRAZOLES AS HERBICIDES” (E I DU PONT DE NEMOURS AND COMPANY, priority 2013, published 2015)

Columns and labels:
ryegrass, Italian = assay: Test C preemergence; format: in vivo, Lolium multiflorum; conditions: preemergence
Summary of the method: (§1)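 Postemergence values come from plants sprayed at the 1- to 4-leaf stage (2–18 cm) in peat moss–vermiculite medium; preemergence values from seeds treated in a loam–sand blend. Both evaluated visually against controls after 13–15 greenhouse days, scale 0–100.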

nutsedge, yellow = assay: Test C preemergence; format: in vivo, Cyperus esculentus; conditions: preemergence
Summary of the method: as §1

morningglory [1] = assay: Test A postemergence; format: in vivo, Ipomoea spp.
Summary of the method: (§2)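 Visual injury ratings, 0 = no effect to 100 = complete control, taken about 10 days after treatment against untreated controls. Test chemicals, in a non-phytotoxic surfactant-containing solvent, were sprayed onto soil preemergence or onto one- to two-leaf plants (2–10 cm) postemergence, in loam–sand soil under greenhouse conditions.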

crabgrass, large [2] = assay: Test A preemergence; format: in vivo, Digitaria sanguinalis; conditions: preemergence
Summary of the method: as §2

galium [3] = assay: Test C postemergence; format: in vivo, Galium aparine
Summary of the method: as §1

waterhemp = assay: Test C preemergence; format: in vivo, Amaranthus rudis; conditions: preemergence
Summary of the method: as §1

galium [4] = assay: Test C preemergence; format: in vivo, Galium aparine; conditions: preemergence
Summary of the method: as §1

corn [5] = assay: Test C preemergence; format: in vivo, Zea mays; conditions: preemergence
Summary of the method: as §1

corn [6] = assay: Test A postemergence; format: in vivo, Zea mays
Summary of the method: as §2

crabgrass, large [7] = assay: Test A postemergence; format: in vivo, Digitaria sanguinalis
Summary of the method: as §2

barnyardgrass = assay: Test C postemergence; format: in vivo, Echinochloa crus-galli
Summary of the method: as §1

foxtail, giant [8] = assay: Test A postemergence; format: in vivo, Setaria faberii
Summary of the method: as §2

foxtail, giant [9] = assay: Test C postemergence; format: in vivo, Setaria faberii
Summary of the method: as §1

morningglory [10] = assay: Test C postemergence; format: in vivo, Ipomoea coccinea
Summary of the method: as §1

wheat = assay: Test A preemergence; format: in vivo, Triticum aestivum; conditions: preemergence
Summary of the method: as §2

blackgrass = assay: Test C postemergence; format: in vivo, Alopecurus myosuroides
Summary of the method: as §1

[11] = 31 g ai/ha, visual rating, scale 0 to 100 (0 no effect, 100 complete control), 13 to 15 days
[12] = 62 g ai/ha, scale 0 to 100 (0 no effect, 100 complete control), 13 to 15 days
[13] = 125 g ai/ha, 13 to 15 days, scale 0 to 100, 0 = no effect, 100 = complete control
[14] = 250 g ai/ha, scale 0 to 100, 0 is no effect, 100 is complete control
[15] = Postemergence, 500 g ai/ha, 0 to 100 scale (0 no effect, 100 complete control)
[16] = postemergence, 125 g ai/ha, about 10 days, visual rating on 0 to 100 scale (0 no effect, 100 complete control)
[17] = 125 g ai/ha, visual injury approx. 10 days after treatment
[18] = 500 g ai/ha, visual injury after approx. 10 days, 0 to 100 scale (0 no effect, 100 complete control)
[19] = Postemergence, 31 g ai/ha, visually evaluated after 13 to 15 days
[20] = postemergence, 62 g ai/ha, scale 0 to 100
[21] = postemergence, 250 g ai/ha, scale 0 to 100 (0 no effect, 100 complete control)
[22] = postemergence, 125 g ai/ha, scale 0 to 100, 0 no effect, 100 complete control

CCNC(=O)c1cc(CC)n(Cc2cc(C(F)(F)F)nn2C)n1 [Compound 154]
0: Nutsedge, Yellow plant response rating (nutsedge, yellow; [11]) | Corn plant response rating (corn [5]; [11]) | Wheat plant response rating (0 to 100 scale) (wheat; [17]) | Plant response rating (scale of 0 to 100 where 0 is no effect and 100 is complete control), Blackgrass (blackgrass; [19]) | Blackgrass plant response rating (blackgrass; [20])
35: Plant response rating, Nutsedge, Yellow (nutsedge, yellow; [13])
60: Nutsedge, Yellow plant response rating (nutsedge, yellow; [14]) | Morningglory plant response rating (morningglory [10]; [20])
5: Ryegrass, Italian plant response rating (ryegrass, Italian; [11]) | Corn plant response rating (corn [5]; [12]) | Plant response rating (scale of 0 to 100 where 0 is no effect and 100 is complete control), Barnyardgrass (barnyardgrass; [19]) | Barnyardgrass plant response rating (barnyardgrass; [20]) | Plant response rating, Barnyardgrass (barnyardgrass; [22]) | Plant response rating (scale of 0 to 100 where 0 is no effect and 100 is complete control), Foxtail, Giant (foxtail, giant [9]; [19]) | Foxtail, Giant plant response rating (foxtail, giant [9]; [20]) | Plant response rating, Foxtail, Giant (foxtail, giant [9]; [22])
10: Ryegrass, Italian plant response rating (ryegrass, Italian; [12]) | Plant response rating, Barnyardgrass (barnyardgrass; [21]) | Plant response rating, Foxtail, Giant (foxtail, giant [9]; [21]) | Plant response rating, Blackgrass (blackgrass; [22])
65: Plant response rating, Galium (galium [3]; [22])
100: Morningglory plant response rating (morningglory [1]; [15]) | Morningglory plant response rating (morningglory [1]; [16]) | Crabgrass, Large plant response rating (0 to 100 scale) (crabgrass, large [2]; [17]) | Crabgrass, Large plant response rating (crabgrass, large [2]; [18]) | Waterhemp plant response rating (waterhemp; [12]) | Plant response rating, Waterhemp (waterhemp; [13]) | Waterhemp plant response rating (waterhemp; [14]) | Galium plant response rating (galium [4]; [12]) | Plant response rating, Galium (galium [4]; [13]) | Galium plant response rating (galium [4]; [14]) | Corn plant response rating (corn [6]; [15]) | Crabgrass, Large plant response rating (crabgrass, large [7]; [15]) | Crabgrass, Large plant response rating (crabgrass, large [7]; [16]) | Foxtail, Giant plant response rating (foxtail, giant [8]; [15]) | Foxtail, Giant plant response rating (foxtail, giant [8]; [16]) | Wheat plant response rating (wheat; [18])
90: Ryegrass, Italian plant response rating (ryegrass, Italian; [14]) | Galium plant response rating (galium [4]; [11])
50: Plant response rating, Ryegrass, Italian (ryegrass, Italian; [13]) | Plant response rating (scale of 0 to 100 where 0 is no effect and 100 is complete control), Galium (galium [3]; [19]) | Galium plant response rating (galium [3]; [20])
95: Corn plant response rating (corn [5]; [14]) | Plant response rating, Morningglory (morningglory [10]; [21])
40: Plant response rating, Corn (corn [5]; [13]) | Corn plant response rating (corn [6]; [16]) | Plant response rating, Blackgrass (blackgrass; [21])
15: Nutsedge, Yellow plant response rating (nutsedge, yellow; [12]) | Plant response rating (scale of 0 to 100 where 0 is no effect and 100 is complete control), Morningglory (morningglory [10]; [19])
85: Plant response rating, Galium (galium [3]; [21]) | Waterhemp plant response rating (waterhemp; [11]) | Plant response rating, Morningglory (morningglory [10]; [22])
